# Where two headings read alike, the source gives them in different places.
# Columns and labels:
# [1] = system: GN56 Acinetobacter baumannii; experiment: Pre-chequerboard MIC, broth microdilution (Example 6); format: cell-based; conditions: levofloxacin resistant clinical isolate
# From the text: (§1) A chequerboard technique was used to identify possible synergistic or antagonistic interactions between the 4-oxoquinolizines compounds, levofloxacin and polymyxin B. Levofloxacin was included as a control. […] Final dilutions were made in Mueller-Hinton broth, the specific test medium used for MIC determinations according to CLSI guidelines (CLSI. Methods for Dilution Antimicrobial Susceptibility Tests for Bacteria That Grow Aerobically; Approved Standard-Eighth Edition (2009). CLSI Document M07-A8. CLSI, Wayne, Pa. 19087-1898, USA.). The test medium used was a cation-adjusted Mueller-Hinton Broth II (Becton Dickinson UK Ltd., Oxford Science Park, Oxford, UK, OX4 4DQ).
# (§2) The compounds 2, 33 and 35, as well as levofloxacin were tested in combination with polymyxin B on the following isolates: GN31 Acinetobacter baumannii—antibiotic susceptible clinical isolate, GN52 Acinetobacter baumannii—levofloxacin resistant clinical isolate, GN56 Acinetobacter baumannii—levofloxacin resistant clinical isolate, GN48 Klebsiella pneumoniae—NCTC 13443—NDM-1-metallo-R-lactamase and GN10 Pseudomonas aeruginosa—ATCC 27853—antibiotic susceptible reference isolate. All isolates are from the collection maintained at Quotient Bioresearch Ltd., Cambridge, UK.
# (§3) The MIC values for the compounds and polymyxin B and levofloxacin were determined by broth microdilution following CLSI guidelines, and the MICs of agents in combination were determined as described by Pillai et.al (Pillai S K, Moellering R C Jr, Eliopoulis G M; Antimicrobial Combinations in Antibiotics in Laboratory Medicine 5th Edition (V. Lorian Ed) (2005) p 365-440). Initial MIC results were used to determine the microtiter plate patterns for the chequerboards. A suitable doubling dilution concentration range was selected such that the combination antibiotic range was at least two concentrations above and four concentrations below the MIC for each isolate. A fixed range of 0.008 to 8 mg/L was tested for polymyxin B except in the case of A. baumannii GN31 where a range of 0.004 to 4 mg/L was tested when in combination with the compounds 2, 33 and 35 as well as levofloxacin.
# [2] = system: GN10 Pseudomonas aeruginosa; experiment: as above; format: cell-based; conditions: ATCC 27853 / GN10, ATCC 27853, antibiotic susceptible
# From the text: as §1, §2, §3
# [3] = system: GN48 Klebsiella pneumoniae; experiment: as above; format: cell-based; conditions: GN48 / NCTC 13443, NCTC 13443, NDM-1
# From the text: as §1, §2, §3
# [4] = system: GN52 Acinetobacter baumannii; experiment: as above; format: cell-based; conditions: levofloxacin resistant clinical isolate
# From the text: as §1, §2, §3
# [5] = system: GN31 Acinetobacter baumannii; experiment: as above; format: cell-based; conditions: antibiotic susceptible clinical isolate
# From the text: as §1, §2, §3
# A. baumannii A329 = experiment: MIC without and with sub-inhibitory polymyxin B (Example 4); format: cell-based, Acinetobacter baumannii; conditions: Acinetobacter baumannii, A329, A. baumannii A329; without polymyxin B; 2nd experiment; visual reading; read-out: MIC without PB
# B. abortus = experiment: microbe, parasite or virus in culture; format: cell-based; conditions: Brucella abortus, read-out: MIC B. abortus
# B. thailandensis = experiment: microbe, parasite or virus in culture; format: cell-based, Burkholderia thailandensis; conditions: Burkholderia thailandensis, read-out: MIC90 B. thailandensis
# B. anthracis = experiment: microbe, parasite or virus in culture; format: cell-based; conditions: Bacillus anthracis, read-out: MIC B. anthracis
# F. tularensis = experiment: microbe, parasite or virus in culture; format: cell-based; conditions: Francisella tularensis, read-out: MIC F. tularensis
# E. faecium 19434 = experiment: MIC, standard panel of Gram-positive and Gram-negative bacteria (CLSI); format: cell-based, Enterococcus faecium; conditions: Enterococcus faecium, 19434; CAMHB; read-out: MIC E. faecium 19434
# A. baumannii A472 [6] = experiment: MIC determination for Acinetobacter strains (Example 3); format: cell-based; conditions: LEV R, CIP R, MRP I, IMP I, AMK R, TET R
# A. baumannii A472 [7] = experiment: MIC without and with sub-inhibitory polymyxin B (Example 4); format: cell-based, Acinetobacter baumannii; conditions: Acinetobacter baumannii, A472, A. baumannii A472; without polymyxin B; 1st experiment; read-out: MIC without PB
# [8] = system: resistant strains of A. baumannii and one strain of Acinetobacter sp.; experiment: MIC without and with sub-inhibitory polymyxin B, whole panel / MIC ranges (Example 4; also strains not listed separately); format: cell-based; conditions: Acinetobacter baumannii
# Pseudomonas ssp PER-1 = experiment: MIC, panel of quinolone-resistant strains (CLSI); format: cell-based, Pseudomonas spp; conditions: PER1, CIP R, ESBL
# Klebsiella ssp KPC-3 = experiment: MIC, panel of quinolone-resistant strains (CLSI); format: cell-based, Klebsiella spp; conditions: KPC3, CIP R, ESBL
# S. aureus 101 = experiment: MIC, standard panel of Gram-positive and Gram-negative bacteria (CLSI); format: cell-based, Staphylococcus aureus; conditions: Staphylococcus aureus, 101; CAMHB; read-out: MIC S. aureus 101
# A. baumannii A390 [9] = experiment: MIC without and with sub-inhibitory polymyxin B (Example 4); format: cell-based, Acinetobacter baumannii; conditions: Acinetobacter baumannii, A390, A. baumannii A390, without polymyxin B, read-out: MIC without PB
# [10] = system: Acinetobacter spp. H064200250; experiment: MIC determination for Acinetobacter strains (Example 3); format: cell-based, Acinetobacter sp.; conditions: LEV R, CIP R, MRP R, IMP I
# [11] = system: Acinetobacter sp. (H064200250); experiment: Preliminary MBC without and with sub-inhibitory polymyxin B (Example 4); format: cell-based; conditions: Acinetobacter, without polymyxin B, preliminary MBC, read-out: MBC without PB
# How it was run: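 Bactericidal endpoint scored visually on plates incubated at 37° C (18-20 hours): the lowest concentration where growth fell about 90% versus the positive control, generally leaving one colony or none.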
# A. baumannii A489 = experiment: MIC without and with sub-inhibitory polymyxin B (Example 4); format: cell-based, Acinetobacter baumannii; conditions: Acinetobacter baumannii, A489, A. baumannii A489; without polymyxin B; 2nd experiment; visual reading; read-out: MIC without PB
# A. baumannii J2 [12] = experiment: MIC determination for Acinetobacter strains (Example 3); format: cell-based; conditions: LEV R, CIP R
# E. coli 2906 = experiment: MIC, panel of quinolone-resistant strains (CLSI); format: cell-based; conditions: Escherichia coli, CIP R
# A. baumannii A473 [13] = experiment: MIC without and with sub-inhibitory polymyxin B (Example 4); format: cell-based, Acinetobacter baumannii; conditions: Acinetobacter baumannii, A473, A. baumannii A473, without polymyxin B, read-out: MIC without PB
# A. baumannii ATCC 19606 = experiment: Preliminary MBC without and with sub-inhibitory polymyxin B (Example 4); format: cell-based, Acinetobacter baumannii; conditions: Acinetobacter baumannii, ATCC19606, read-out: MBC without PB
# E. coli CTX-M-15 = experiment: MIC, panel of quinolone-resistant strains (CLSI); format: cell-based; conditions: Escherichia coli, CTXM15; CIP R, ESBL
# S. pneumoniae 1027 = experiment: MIC, panel of quinolone-resistant strains (CLSI); format: cell-based; conditions: Streptococcus pneumoniae, LEV R
# E. coli 25922 = experiment: MIC, standard panel of Gram-positive and Gram-negative bacteria (CLSI); format: cell-based, Escherichia coli; conditions: Escherichia coli, 25922; CAMHB; read-out: MIC E. coli 25922
# A. baumannii A473 [14] = experiment: MIC determination for Acinetobacter strains (Example 3); format: cell-based; conditions: LEV R, CIP R, MRP R, IMP R, AMK R, TET R
# A. baumannii A401 = experiment: MIC without and with sub-inhibitory polymyxin B (Example 4); format: cell-based, Acinetobacter baumannii; conditions: Acinetobacter baumannii, A401, A baumannii A 401; without polymyxin B; 2nd experiment; visual reading; read-out: MIC without PB
# A. baumannii A390 [15] = experiment: MIC determination for Acinetobacter strains (Example 3); format: cell-based; conditions: LEV R, CIP R, MRP R, IPM I, AMK R, TET I
# [16] = system: Acinetobacter sp. (H064200250); experiment: MIC without and with sub-inhibitory polymyxin B (Example 4); format: cell-based; conditions: Acinetobacter, without polymyxin B, read-out: MIC without PB
# A. baumannii J2 [17] = experiment: as above; format: cell-based, Acinetobacter baumannii; conditions: Acinetobacter baumannii, J2, A. baumannii J2; without polymyxin B; 1st experiment; read-out: MIC without PB
# P. aeruginosa 1388-3-02 = experiment: MIC, panel of quinolone-resistant strains (CLSI); format: cell-based; conditions: Pseudomonas aeruginosa, 1388302; CIP R, POL R
# E. coli IMP = experiment: microbe, parasite or virus in culture; conditions: Escherichia coli, read-out: MIC E. coli IMP
# P. aeruginosa 143-3-03 = experiment: MIC, panel of quinolone-resistant strains (CLSI); format: cell-based; conditions: Pseudomonas aeruginosa, 143303; CIP I, POL R
# A. Baumanii OXA-51 = experiment: MIC, panel of quinolone-resistant strains (CLSI); format: cell-based; conditions: Acinetobacter baumannii; CIP R, ESBL
# B. pseudomallei = experiment: microbe, parasite or virus in culture; format: cell-based; conditions: Burkholderia pseudomallei, read-out: MIC B. pseudomallei
# [18] = system: K. pneumoniae BAA-2146 (NDM-1, FQ-R); experiment: MIC on K. pneumoniae (Example 5); format: cell-based; conditions: Klebsiella pneumoniae, BAA2146, read-out: MIC K. pneumoniae BAA-2146 (NDM-1, FQ-R)
# Method: MIC Values for all compounds were measured against a selection of bacterial strains. The MICs of 4-oxoquinolizines against a selection of Gram-negative and Gram-positive bacterial strains are shown in Table 13 in comparison with known antibiotics.
# [19] = Acinetobacter spp. H064200250, 1st experiment
smiles,measurement,setting,value
"Cc1c(-c2ccc(N)nc2)ccn2c(=O)c(C(=O)O)cc(C3CC3)c12 [Compound 33, 8-(6-amino-3-pyridyl)-1-cyclopropyl-9-methyl-4-oxo-quinolizine-3-carboxylic acid]",MIC,[1],16 µg/mL
same,MIC,[2],0.5 µg/mL
same,MIC,[3],16 µg/mL
same,MIC,[4],2 µg/mL
same,MIC,[5],0.03 µg/mL
"Cc1c(-c2ccc(CN)cc2)ccn2c(=O)c(C(=O)O)cc(C3CC3)c12 [Compound 5, 8-(4-aminomethyl-phenyl)-1-cyclopropyl-9-methyl-4-oxo-quinolizine-3-carboxylic acid]",MIC,A. baumannii A329,8 µg/mL
same,MIC,B. abortus,1 µg/mL
same,MIC90,B. thailandensis,0.39 µg/mL
same,MIC,B. anthracis,0.125 µg/mL
same,MIC,F. tularensis,0.125 µg/mL
same,MIC,E. faecium 19434,2 µg/mL
same,MIC,A. baumannii A472 [6],8 µg/mL
same,MIC,A. baumannii A472 [7],8 µg/mL
same,MIC,"[8]; A. baumannii A14, without polymyxin B, 1st experiment, read-out: MIC without PB",32 µg/mL
same,MIC,"[8]; NCTC13301, A. baumannii NCTC 13301, without polymyxin B, 2nd experiment, visual reading, read-out: MIC without PB",8 µg/mL
same,MIC,"[8]; read-out: MIC range without PB 01-10-2008 n = 8, without polymyxin B, 1st experiment, 8 strains",2 to 32 µg/mL
same,MIC,"[8]; without polymyxin B, 2nd experiment, 11 strains, read-out: MIC range without PB 14-10-2008 n = 11",4 to 16 µg/mL
same,MIC,Pseudomonas ssp PER-1,8 µg/mL
same,MIC,Klebsiella ssp KPC-3,8 µg/mL
same,MIC,S. aureus 101,4 µg/mL
same,MIC,A. baumannii A390 [9]; 1st experiment,8 µg/mL
same,MIC,"A. baumannii A390 [9]; 2nd experiment, visual reading",8 µg/mL
same,MIC,[10],16 µg/mL
same,MBC,"[11]; Acinetobacter spp. H064200250 (OXA51), 2nd experiment",16 µg/mL
same,MBC,[11]; [19],8 µg/mL
same,MIC,A. baumannii A489,8 µg/mL
same,MIC,A. baumannii J2 [12],8 µg/mL
same,MIC,E. coli 2906,16 µg/mL
same,MIC,A. baumannii A473 [13]; 1st experiment,8 µg/mL
same,MIC,"A. baumannii A473 [13]; 2nd experiment, visual reading",8 µg/mL
same,MBC,A. baumannii ATCC 19606,0.125 µg/mL
same,MIC,E. coli CTX-M-15,16 µg/mL
same,MIC,S. pneumoniae 1027,2 µg/mL
same,MIC,E. coli 25922,< 0.03 µg/mL
same,MIC,A. baumannii A473 [14],8 µg/mL
same,MIC,A. baumannii A401,8 µg/mL
same,MIC,A. baumannii A390 [15],8 µg/mL
same,MIC,"[16]; Acinetobacter spp. H064200250 (OXA51), 2nd experiment, visual reading",16 µg/mL
same,MIC,[16]; [19],16 µg/mL
same,MIC,A. baumannii J2 [17],8 µg/mL
same,MIC,P. aeruginosa 1388-3-02,16 µg/mL
same,MIC,E. coli IMP,< 0.008 µg/mL
same,MIC,P. aeruginosa 143-3-03,4 µg/mL
same,MIC,A. Baumanii OXA-51,8 µg/mL
same,MIC,B. pseudomallei,2 µg/mL
"Cc1c(-c2cc(F)c(N)cc2F)ccn2c(=O)c(C(=O)[O-])cc(C3CC3)c12.[K+] [Compound 2 K salt, Potassium 8-(4-amino-2,5-difluoro-phenyl)-1-cyclopropyl-9-methyl-4-oxo-4H-quinolizine-3-carboxylate]",MIC,[18],> 8 µg/mL
"Cc1c(-c2ccc(N)nc2)ccn2c(=O)c(C(=O)[O-])cc(C3CC3)c12.[K+] [Compound 33 K salt, potassium 8-(6-amino-pyridin-3-yl)-1-cyclopropyl-9-methyl-4-oxo-4H-quinolizine-3-carboxylate]",MIC,[18],> 8 µg/mL
"Cc1c(-c2ccc3[nH]ncc3c2)ccn2c(=O)c(C(=O)[O-])cc(C3CC3)c12.[K+] [Compound 35 K salt, potassium 8-(1H-indazol-5-yl)-1-cyclopropyl-9-methyl-4-oxo-4H-quinolizine-3-carboxylate]",MIC,[18],> 8 µg/mL
